{
  "source": "patent US20030236257A1",
  "about": "“Polycyclic aryl and heteroaryl substituted 4-pyridones useful for selective inhibition of the cogulation cascade” (priority 2003, published 2003)",
  "format_in_all_cases": "biochemical",
  "key": {"[1]": {"molecular_target": "T1, TF-VIIa (recombinant soluble tissue factor and recombinant human factor VIIa) (Homo sapiens, UniProt P08709)", "T1 construct": "purchased American Diagnostica, Greenwich; host or cells: soluble TF made in house in E. coli", "T1 sequence (P08709 213-466 limits assumed)": "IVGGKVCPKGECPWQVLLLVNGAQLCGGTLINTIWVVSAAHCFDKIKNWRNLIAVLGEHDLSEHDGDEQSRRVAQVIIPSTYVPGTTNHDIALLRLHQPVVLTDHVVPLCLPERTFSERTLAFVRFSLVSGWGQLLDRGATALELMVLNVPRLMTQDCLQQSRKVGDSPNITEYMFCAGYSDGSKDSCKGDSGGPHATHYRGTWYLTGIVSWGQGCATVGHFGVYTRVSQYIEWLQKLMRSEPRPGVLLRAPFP", "T1 sequence (P08709 61-212 partner limits assumed)": "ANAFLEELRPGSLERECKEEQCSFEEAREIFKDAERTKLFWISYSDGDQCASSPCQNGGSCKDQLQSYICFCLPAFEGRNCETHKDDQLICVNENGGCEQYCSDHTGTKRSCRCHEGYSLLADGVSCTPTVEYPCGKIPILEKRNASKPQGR", "T1 sequence (P13726 33-251 partner limits assumed)": "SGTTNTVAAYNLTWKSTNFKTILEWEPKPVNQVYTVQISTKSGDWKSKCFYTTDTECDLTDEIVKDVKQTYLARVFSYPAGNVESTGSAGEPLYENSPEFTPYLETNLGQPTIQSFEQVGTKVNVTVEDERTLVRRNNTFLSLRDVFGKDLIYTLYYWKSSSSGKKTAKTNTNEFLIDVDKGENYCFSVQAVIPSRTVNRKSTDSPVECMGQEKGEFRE", "experiment": "TF-VIIa Assay", "details": "chromogenic substrate, 60 min at room temperature, OD 405 nm; read-out: IC50 or % Inhibition TF-VIIa (30 µM): IC50", "description": "(§1) In this assay 100 nM recombinant soluble tissue factor and 2 nM recombinant human factor VIIa are added to a 96-well assay plate containing 0.4 mM of the substrate, N-Methylsulfonyl-D-phe-gly-arg-p-nitroaniline and either inhibitor or buffer (5 mM CaCl2, 50 mM Tris-HCl, pH 8.0, 100 mM NaCl, 0.1% BSA). The reaction, in a final volume of 100 ul is measured immediately at 405 nm to determine background absorbance. The plate is incubated at room temperature for 60 min, at which time the rate of hydrolysis of the substrate is measured by monitoring the reaction at 405 nm for the release of p-nitroaniline. Percent inhibition of TF-VIIa activity is calculated from OD405nm value from the experimental and control sample.\n(§2) Recombinant soluble TF, consisting of amino acids 1-219 of the mature protein sequence was expressed in E. coli and purified using a Mono Q Sepharose FPLC. Recombinant human […] was purchased from American Diagnostica, Greenwich Cr and chromogenic substrate N-Methylsulfonyl-D-phe-gly-arg-pnitroaniline was prepared by American Peptide Company, Inc., Sunnyvale, Calif. Factor Xa was obtained from Enzyme Research Laboratories, South Bend IN, thrombin from Calbiochem, La Jolla, Calif., and trypsin and L-BAPNA from Sigma, St. Louis Mo. The chromogenic substrates S-2765 and S-2238 were purchased from Chromogenix, Sweden."}, "[2]": {"molecular_target": "T2, human factor Xa (Homo sapiens, UniProt P00742)", "T2 construct": "purchased Enzyme Research Laboratories, South Bend IN", "T2 sequence (P00742 235-488 limits assumed)": "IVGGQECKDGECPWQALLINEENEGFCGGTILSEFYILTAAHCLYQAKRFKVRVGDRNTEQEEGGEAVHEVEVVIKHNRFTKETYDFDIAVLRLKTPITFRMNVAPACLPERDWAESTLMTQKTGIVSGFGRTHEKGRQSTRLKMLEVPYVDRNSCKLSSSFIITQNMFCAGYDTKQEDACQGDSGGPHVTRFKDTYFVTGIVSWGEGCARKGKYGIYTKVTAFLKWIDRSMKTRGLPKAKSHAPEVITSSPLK", "T2 sequence (P00742 41-179 partner limits assumed)": "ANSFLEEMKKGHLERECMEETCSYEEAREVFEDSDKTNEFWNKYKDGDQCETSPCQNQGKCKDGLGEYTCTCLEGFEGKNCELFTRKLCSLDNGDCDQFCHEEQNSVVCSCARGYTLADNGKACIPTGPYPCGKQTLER", "experiment": "Xa Assay", "details": "read-out: IC50 or % Inhibition Factor Xa (30 µM): % inhibition", "description": "as §1, with “0.3” for “In this assay 100”, “nM” for “nM recombinant soluble tissue factor and 2 nM recombinant”, “Xa and 0.15 mM N-a-Benzyloxycarbonyl-D-arginyl-L-glycyl-L-arginne-nitroaniline-dihydrochloride (S-2765)” for “VIIa”, “containing” for “containing 0.4 mM of the substrate, N-Methylsulfonyl-D-phe-gly-arg-p-nitroaniline and”, “(50” for “(5 mM CaCl2, 50”, “Xa” for “TF-VIIa”\nas §2"}, "[3]": {"molecular_target": "human thrombin (Homo sapiens, UniProt P00734)", "experiment": "Thrombin Assay", "description": "0.28 nM human thrombin and 0.06 mM H-D-Phenylalanyl-L-pipecolyl-L, arginine-nitroaniline, dihydrochloride are added to a 96-well assay plate containing either inhibitor or buffer (50 mM Tris-HCl, pH 8.0, 100 mM NaCl, 0.1% BSA). The reaction, in a final volume of 100 ul is measured immediately at 405 nm to determine background absorbance. The plate is incubated at room temperature for 60 min, at which time the rate of hydrolysis of the substrate is measured by monitoring the reaction at 405 nm for the release of pnitroaniline. Percent inhibition of thrombin activity is calculated from OD405nm value from the experimental and control sample.\nas §2"}, "[4]": {"molecular_target": "T3, trypsin, type IX from porcine pancreas (Sus scrofa, UniProt P00761)", "T3 construct": "purchased Sigma, St. Louis Mo; host or cells: porcine pancreas", "T3 sequence (P00761 9-231)": "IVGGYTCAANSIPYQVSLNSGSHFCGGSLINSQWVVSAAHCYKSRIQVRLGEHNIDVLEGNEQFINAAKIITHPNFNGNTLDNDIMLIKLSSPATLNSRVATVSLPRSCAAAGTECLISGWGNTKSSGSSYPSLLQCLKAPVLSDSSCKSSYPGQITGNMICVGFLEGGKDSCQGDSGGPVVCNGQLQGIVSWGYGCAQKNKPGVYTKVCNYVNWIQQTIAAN", "experiment": "Trypsin Assay", "details": "chromogenic substrate L-BAPNA, 60 min at room temperature, OD 405 nm; read-out: IC50 or % Inhibition Trpysin II (30 µM): IC50", "description": "5 ug/ml trypsin, type IX from porcine pancreas and 0.375 mM N-α-Benzoyl-L-arginine-p-nitroanilide (LBAPNA) are added to a 96-well assay plate containing either inhibitor or buffer (50 mM Tris-HCl, pH 8.0, 100 mM NaCl, 0.1% BSA). The reactions, in a final volume of 100 ul are measured immediately at 405 nm to determine background absorbance. The plate is incubated at room temperature for 60 min, at which time the rate of hydrolysis of the substrate is measured by monitoring the reaction at 405 nm for the release of p-nitroaniline. Percent inhibition of trypsin activity is calculated from OD405nm value from the experimental and control sample.\nas §2"}},
  "data": [
    {"smiles": "CC(C)Nc1cn(C)c(-c2cccc(N)c2)c(CC(=O)NCc2ccc(C(=N)N)cc2)c1=O", "note": "[Example 1]", "values": [
      {"measurement": "IC50", "setting": "[1]", "result": 280, "unit": "nM"},
      {"measurement": "inhibition at 100 µM", "setting": "[2]", "result": 32, "unit": "%"},
      {"measurement": "IC50", "setting": "[3]; chromogenic substrate, 60 min at room temperature, OD 405 nm, read-out: IC50 or % Inhibition Thrombin (30 µM): IC50", "result": 100000, "unit": "nM"},
      {"measurement": "IC50", "setting": "[4]", "result": 33, "unit": "nM"}
    ]},
    {"smiles": "CCCn1cc(NC(C)C)c(=O)c(CC(=O)NCc2ccc(C(=N)N)cc2)c1-c1cccc(N)c1", "note": "[Example 2]", "values": [
      {"measurement": "IC50", "setting": "[1]", "result": 560, "unit": "nM"},
      {"measurement": "inhibition at 100 µM", "setting": "[2]", "result": 34, "unit": "%"},
      {"measurement": "inhibition at 100 µM", "setting": "[3]; at 100 μM, read-out: IC50 or % Inhibition Thrombin (30 µM): % inhibition", "result": 45, "unit": "%"},
      {"measurement": "IC50", "setting": "[4]", "result": 151, "unit": "nM"}
    ]}
  ]
}
